The nature of the data set: Pharmacokinetic study (plasma total DTX). The class given is in vivo. Conditions: total DTX in plasma. The method, then:
PEGMEMA-DTX conjugates having 50 kDa and 85 kDa molecular weight were subjected to pharmacokinetic testing and its pharmacokinetic profile was compared with that of free DTX.
Pharmacokinetic parameters for total DTX were calculated using the plasma total DTX concentration values of polymer drug conjugates and free DTX. Half-life, volume of distribution (VDβ), clearance (CL), and total area under the curve (AUC total) were calculated.
In order to provide similarity the HPMA-GFLG-DTX polymer was prepared without RGDfK targeting group.

The term clearance denotes the volume of plasma or blood freed of the substance per unit of time. Usually half-life stands for how long it takes for the measured level to halve.

For `CC(=O)O[C@@]12CO[C@@H]1C[C@H](O)[C@@]1(C)C(=O)[C@H](O)C3=C(C)[C@@H](OC(=O)[C@H](O)[C@@H](NC(=O)OC(C)(C)C)c4ccccc4)C[C@@](O)([C@@H](OC(=O)c4ccccc4)[C@H]21)C3(C)C` [Free DTX, Docetaxel], the AUC total was 10000 ± 3000 ng·h/mL. Also, the clearance (read-out: CL (clearance) (converted)) was 2.34 mL/min. Moreover, the half-life (read-out: Half Life (β) (converted)) was 3.12 ± 0.88 h. Also, where the note is “read-out: VDβ (volume of distribution)”, the Vd stood at 0.664 ± 0.258 L.

The values are drawn from US12673104B2, “Cleavable polymer drug conjugates” (RS ARASTIRMA EGITIM DANISMANLIK ILAC SANAYI TICARET ANONIM …, priority 2016, dated 2026).
